What is called Kd is the concentration at which binding is half-saturated. Read a low Kd as a tighter complex.

The values that follow come from article PMC4838876, “Multivalent display of minimal Clostridium difficile glycan epitopes mimics antigenic properties of larger glycans” (Nature Communications, 2016).

The target of the assay is mAb 10A1 (anti-PS-I IgG1). The experiment in a line: Kinetic SPR of glycans binding to captured mAb 10A1. The note with it: mAb 10A1, PBS, 25 °C, mean (min;max) n=2. Also on record: species or system mouse. The procedure: Kinetic SPR experiments were performed to determine the binding strengths of the mAbs to PS-I glycans expressed as dissociation constants (KD)[8] (Fig. 5a). […] Overall, the SPR measurements (summarized in Table 1) confirmed results obtained by glycan microarray presented above.
Figure 5 KD values of anti-PS-I mAbs binding to 1 and 3 inferred by SPR. (a) mAbs were captured with an anti-mouse IgG antibody immobilized on the SPR sensor surface. Glycan antigens were passed over the surface to monitor changes in the response unit signals. (b,c) Representative sensorgrams showing reference-subtracted binding signals to 1 (b) and 3 (c). KD values were calculated by fitting the curves to a 1:1 Langmuir binding model (black overlaid curves) or with a steady-state affinity model (response units versus concentration plots). Indicated KD values are mean±s.e.m. of n=3 or mean with minimum and maximum values in parentheses of n=2 independent experiments. See Supplementary Figs 3–5 for details.
Binding analyses were carried out on a Biacore T100 instrument (GE Healthcare). […] The fitting quality was evaluated by investigating respective residual plots, χ^2 and s.e. values for on- and off-rates. […]

Compound `C[C@@H]1O[C@@H](O[C@@H]2[C@@H](O)[C@H](O[C@H]3[C@H](O[C@@H]4O[C@@H](C)[C@H](O)[C@@H](O)[C@H]4O)[C@@H](O)[C@@H](O[C@H]4[C@@H](OCCCCCN)O[C@H](CO)[C@@H](O)[C@@H]4O)O[C@@H]3CO)O[C@H](CO)[C@H]2O)[C@H](O)[C@H](O)[C@H]1O` [Compound 1] came in with a Kd of 0.245 µM.
The result for `C[C@@H]1O[C@@H](O[C@@H]2[C@@H](O)[C@H](OCCCCCN)O[C@H](CO)[C@H]2O)[C@H](O)[C@H](O)[C@H]1O` [Compound 3, Rha-(1→3)-Glc] reads 5.9 µM.
